Results: PubChem BioAssay AID2060489 (Molecular Pharmacology Branch, DTP, NCI, 2025)
pIC50: −log10 of the molar value.

Test system: 922993-354-T-J3-PDC complex spheroids, viability
Assay: Anticancer human tumor 922993-354-T-J3-PDC patient-derived endometrial carcinoma cell line growth inhibition [GQUAD]
Conditions: for pIC50: curve of first compound; for viability, T/C: stronger effect = lower value
Summary of the method: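 Viability of tumor cells grown as complex spheroids with endothelial and stromal cells, exposed to drug combinations. Top concentration at or near clinical Cmax (else 10 microM), diluted in half-log increments.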

[1] = second compound 0.0316 µM, first compound 0.0316 µM
[2] = second compound 0.0316 µM, first compound 0.1 µM
[3] = second compound 0.0316 µM, first compound 0.316 µM
[4] = second compound 0.0316 µM, first compound 1 µM
[5] = second compound 0.0316 µM, first compound 3.16 µM
[6] = second compound 0.0316 µM, first compound 10 µM
[7] = second compound 0.1 µM, first compound 0.0316 µM
[8] = second compound 0.1 µM, first compound 0.1 µM
[9] = second compound 0.1 µM, first compound 0.316 µM
[10] = second compound 0.1 µM, first compound 1 µM
[11] = second compound 0.1 µM, first compound 3.16 µM
[12] = second compound 0.1 µM, first compound 10 µM
[13] = second compound 0.316 µM, first compound 0.0316 µM
[14] = second compound 0.316 µM, first compound 0.1 µM
[15] = second compound 0.316 µM, first compound 0.316 µM
[16] = second compound 0.316 µM, first compound 1 µM
[17] = second compound 0.316 µM, first compound 3.16 µM
[18] = second compound 0.316 µM, first compound 10 µM
[19] = second compound 1 µM, first compound 0.0316 µM
[20] = second compound 1 µM, first compound 0.1 µM
[21] = second compound 1 µM, first compound 0.316 µM
[22] = second compound 1 µM, first compound 1 µM
[23] = second compound 1 µM, first compound 3.16 µM
[24] = second compound 1 µM, first compound 10 µM
[25] = second compound 3.16 µM, first compound 0.0316 µM
[26] = second compound 3.16 µM, first compound 0.1 µM
[27] = second compound 3.16 µM, first compound 0.316 µM
[28] = second compound 3.16 µM, first compound 1 µM
[29] = second compound 3.16 µM, first compound 3.16 µM
[30] = second compound 3.16 µM, first compound 10 µM
[31] = second compound 10 µM, first compound 0.0316 µM
[32] = second compound 10 µM, first compound 0.1 µM
[33] = second compound 10 µM, first compound 0.316 µM
[34] = second compound 10 µM, first compound 1 µM
[35] = second compound 10 µM, first compound 3.16 µM
[36] = second compound 10 µM, first compound 10 µM
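Further: spheroids exposed to compounds for seven days.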
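Wherever viability, T/C is given: 100% = DMSO vehicle control viability.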

Q: What does the source list for CC1COCCN1c1cc(C2(O)CC3CCC(C2)O3)c2cnn(-c3ccn[nH]3)c2n1 (stereo unspecified) + Cc1[nH]c2ccc(F)cc2c1-c1nc2c3cccnc3c3ncccc3c2[nH]1?
A: pIC50 (second compound 0.0316 µM): 6.48; pIC50 (second compound 0.1 µM): 6.28; pIC50 (second compound 0.316 µM): 6.18; pIC50 (second compound 1 µM): 6.45; pIC50 (second compound 3.16 µM): 6.21; pIC50 (second compound 10 µM): 6.36; viability, T/C [1]: 87.8%; viability, T/C [2]: 67.6%; viability, T/C [3]: 50.8%; viability, T/C [4]: 37.5%; viability, T/C [5]: 19.9%; viability, T/C [6]: 15.1%; viability, T/C [7]: 85.7%; viability, T/C [8]: 84.5%; viability, T/C [9]: 62.2%; viability, T/C [10]: 33.3%; viability, T/C [11]: 21.2%; viability, T/C [12]: 18.5%; viability, T/C [13]: 85.4%; viability, T/C [14]: 94.3%; viability, T/C [15]: 69.9%; viability, T/C [16]: 37.2%; viability, T/C [17]: 22%; viability, T/C [18]: 13.3%; viability, T/C [19]: 84.4%; viability, T/C [20]: 96.7%; viability, T/C [21]: 52.9%; viability, T/C [22]: 30.7%; viability, T/C [23]: 24.4%; viability, T/C [24]: 17.7%; viability, T/C [25]: 86.4%; viability, T/C [26]: 70.5%; viability, T/C [27]: 68.6%; viability, T/C [28]: 37.1%; viability, T/C [29]: 27.4%; viability, T/C [30]: 19.6%; viability, T/C [31]: 89.2%; viability, T/C [32]: 77.5%; viability, T/C [33]: 53.3%; viability, T/C [34]: 37.6%; viability, T/C [35]: 23.6%; viability, T/C [36]: 18.2%

Q: With COc1ccc([C@@H](O)c2cc(-c3ncnc4cc(N5CCOCC5)ccc34)c(F)cc2Cl)nn1 + Cc1[nH]c2ccc(F)cc2c1-c1nc2c3cccnc3c3ncccc3c2[nH]1 as the compound, how does the pIC50 (second compound 0.0316 µM) read?
A: 5.04

Q: What about the pIC50 (second compound 0.1 µM) of the same compound?
A: < 5.00

Q: What about the pIC50 (second compound 0.316 µM) of the same compound?
A: 5.07

Q: And the pIC50 (second compound 1 µM)?
A: < 5.00

Q: And the pIC50 (second compound 3.16 µM)?
A: < 5.00

Q: And the pIC50 (second compound 10 µM)?
A: < 5.00

Q: What about the viability, T/C [1] of the same compound?
A: 107%

Q: And the viability, T/C [2]?
A: 112%

Q: And the viability, T/C [3]?
A: 92.9%

Q: What about the viability, T/C [4] of the same compound?
A: 90%

Q: What about the viability, T/C [5] of the same compound?
A: 95.8%

Q: And the viability, T/C [6]?
A: 45.7%

Q: What about the viability, T/C [7] of the same compound?
A: 123%

Q: What about the viability, T/C [8] of the same compound?
A: 115%

Q: What about the viability, T/C [9] of the same compound?
A: 114%

Q: And the viability, T/C [10]?
A: 94.9%

Q: And the viability, T/C [11]?
A: 115%

Q: And the viability, T/C [12]?
A: 58.1%

Q: And the viability, T/C [13]?
A: 106%

Q: What about the viability, T/C [14] of the same compound?
A: 116%

Q: And the viability, T/C [15]?
A: 94%

Q: What about the viability, T/C [16] of the same compound?
A: 100%

Q: And the viability, T/C [17]?
A: 86.8%

Q: And the viability, T/C [18]?
A: 43.4%

Q: What about the viability, T/C [19] of the same compound?
A: 114%

Q: And the viability, T/C [20]?
A: 108%

Q: And the viability, T/C [21]?
A: 72.2%

Q: And the viability, T/C [22]?
A: 88.6%

Q: What about the viability, T/C [23] of the same compound?
A: 97.1%

Q: What about the viability, T/C [24] of the same compound?
A: 68.2%

Q: And the viability, T/C [25]?
A: 101%

Q: What about the viability, T/C [26] of the same compound?
A: 101%

Q: And the viability, T/C [27]?
A: 93.9%

Q: What about the viability, T/C [28] of the same compound?
A: 103%

Q: And the viability, T/C [29]?
A: 88.9%

Q: And the viability, T/C [30]?
A: 66.1%

Q: What about the viability, T/C [31] of the same compound?
A: 84.6%

Q: What about the viability, T/C [32] of the same compound?
A: 88.6%

Q: What about the viability, T/C [33] of the same compound?
A: 109%

Q: And the viability, T/C [34]?
A: 90.8%

Q: And the viability, T/C [35]?
A: 108%

Q: And the viability, T/C [36]?
A: 61.6%

Q: What does the source list for CC(C)n1c(=O)n(C)c2cnc3cc(F)c(-c4ccc(OCCCN5CCCCC5)nc4)cc3c21 + Cc1cnc(CNC(=O)c2c(=O)c3ccc(N4CCCN(C)CC4)nc3n3c2sc2ccccc23)cn1?
A: pIC50 (second compound 0.0316 µM): < 5.00; pIC50 (second compound 0.1 µM): 6.59; pIC50 (second compound 0.316 µM): > 7.50; pIC50 (second compound 1 µM): 6.32; pIC50 (second compound 3.16 µM): > 7.50; pIC50 (second compound 10 µM): > 7.50; viability, T/C [1]: 87.1%; viability, T/C [2]: 75%; viability, T/C [3]: 59.3%; viability, T/C [4]: 59.8%; viability, T/C [5]: 52.9%; viability, T/C [6]: 52%; viability, T/C [7]: 53.6%; viability, T/C [8]: 54.5%; viability, T/C [9]: 44.9%; viability, T/C [10]: 45.4%; viability, T/C [11]: 52.9%; viability, T/C [12]: 41.6%; viability, T/C [13]: 52.2%; viability, T/C [14]: 41.4%; viability, T/C [15]: 46.9%; viability, T/C [16]: 40%; viability, T/C [17]: 59.2%; viability, T/C [18]: 46.6%; viability, T/C [19]: 44.1%; viability, T/C [20]: 53.9%; viability, T/C [21]: 54.4%; viability, T/C [22]: 49.5%; viability, T/C [23]: 45.6%; viability, T/C [24]: 38.6%; viability, T/C [25]: 45.4%; viability, T/C [26]: 45.6%; viability, T/C [27]: 49%; viability, T/C [28]: 48.6%; viability, T/C [29]: 58.8%; viability, T/C [30]: 44.6%; viability, T/C [31]: 41.9%; viability, T/C [32]: 43.6%; viability, T/C [33]: 36.6%; viability, T/C [34]: 42.1%; viability, T/C [35]: 37.9%; viability, T/C [36]: 28.3%
